Assay results taken from US20250009914A1, “METHOD FOR SYNTHESIZING HYALURONIC ACID NANOPARTICLES, AND HYALURONIC ACID NANOPARTICLES PREPARED BY METHOD” (Kyungpook National University Industry-Academic Cooperation …, priority 2019, published 2025).

Columns and labels:
[1] = system: HDF-neo, Human primary dermal fibroblast-neonatal; experiment: Fibroblast proliferation, WST-8 assay (Ez-cytox); format: cell-based; details: 3 day, serum free condition, FIG. 26
Protocol: Next, the fibroblast proliferation effect was evaluated according to a conventional known method.
Evaluation method: WST-8 assay (Ez-cytox) and Procollagen ELISA (Takara #MK101)

[2] = system: B16F10 mouse melanoma cell line; experiment: Melanin contents assay; format: cell-based; details: B16F10, 48 hours; substance left 24 hours at 50° C. compared with −20° C., FIG. 23
Protocol: Whitening efficacy evaluation was measured by melanin contents assay and cellular tyrosinase activity assay after treating each experimental substance to a B16F10 mouse melanoma cell line and incubating the each experimental substance for 48 hours. As a control, ascorbic acid, ascorbic acid-2-glucoside (AA2G) and HAI (Oligo-HA) used in Example 2 were used. The substances used in the experiment were all left for 24 hours at −20° C. or 50° C. and then used in the experiment.

[3] = Thermal stability evaluation by HPLC; format: physicochemical; details: aqueous solution 100 uM, 50° C. for 48 hours
cellular tyrosinase = target: T1, cellular tyrosinase (Mus musculus, UniProt P11344); experiment: Cellular tyrosinase activity assay; format: cell-based; details: B16F10, 48 hours; substance left 24 hours at 50° C. compared with −20° C., FIG. 23
T1 construct: Cell line: B16F10 mouse melanoma (Passage 10), 6 well plate; endogenous in cells; host or cells: B16F10 mouse melanoma cells
T1 sequence (P11344 19-533): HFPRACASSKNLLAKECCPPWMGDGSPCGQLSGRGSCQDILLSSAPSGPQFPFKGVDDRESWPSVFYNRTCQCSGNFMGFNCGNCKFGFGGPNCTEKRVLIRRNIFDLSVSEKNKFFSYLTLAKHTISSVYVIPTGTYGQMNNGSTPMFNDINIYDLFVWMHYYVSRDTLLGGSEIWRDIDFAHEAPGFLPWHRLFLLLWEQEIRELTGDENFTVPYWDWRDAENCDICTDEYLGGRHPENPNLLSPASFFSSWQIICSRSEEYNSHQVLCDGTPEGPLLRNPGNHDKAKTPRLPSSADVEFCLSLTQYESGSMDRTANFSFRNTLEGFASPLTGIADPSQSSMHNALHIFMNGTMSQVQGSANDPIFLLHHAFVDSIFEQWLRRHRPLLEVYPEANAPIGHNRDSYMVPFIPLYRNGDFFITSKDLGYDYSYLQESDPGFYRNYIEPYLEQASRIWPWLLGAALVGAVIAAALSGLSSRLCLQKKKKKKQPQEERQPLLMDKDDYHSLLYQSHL
Protocol: Cell line: B16F10 mouse melanoma (Passage 10), 6 well plate, 4×10^5 cells/well
Evaluation method: Cellular tyrosinase activity assay
Experimental substance treatment time: 48 hours
Experimental substance treatment concentration: See FIG. 25

Structure (SMILES) | fibroblast proliferation promoting efficacy [1] | melanin production (whitening efficacy) [2] | oxidation over time [3] | tyrosinase activity (whitening efficacy) (cellular tyrosinase)
O=C1O[C@H]([C@@H](O)CO)C(O)=C1O[C@H]1O[C@H](CO)[C@@H](O)[C@H](O)[C@H]1O [AA2G, ascorbic acid-2-glucoside] | almost not shown |  |  | 
CCCCCCCCCCCCCCCC(=O)OCC(O)C1OC(=O)C(OP(=O)(O)O)=C1O (stereo not drawn) [APPS] | almost not shown |  |  | 
O=C1O[C@H]([C@@H](O)CO)C(O)=C1O [ascorbic acid] | almost not shown | whitening efficacy disappeared | not oxidized over time | whitening efficacy disappeared
